Data published in patent US5434136A, “Treatment of motility disorders with a GNRH analog” (priority 1992, dated 1995).

What was measured:
irritable bowel syndrome = settings: patient, three months
Protocol: The patient, a patient suffering from irritable bowel syndrome presented symptoms of nausea, vomiting, abdominal pain, and altered bowel habits. This patient was treated with lupron, 2.0 mg/day by subcutaneous injection, for a period of six months. […] Nafarelin is a GnRH analog available from SYNTEX, which differs from the natural GnRH peptide in a D-Nal (2)^6 substitution. […] Nafarelin therapy was discontinued, and treatment with Danazol, a 17-ethyltestosterone derivative known to antagonize GnRH receptors at the level of the pituitary, was begun, at 200 mg four times daily, P.O., for a period of three months.

[1] = tested on: diseases of the autonomic nervous system; settings: cited from earlier work; for Relief of symptoms: mild to moderate symptoms; for Relief of symptoms / Effectiveness in patients with severe symptoms: experimental drugs; for Success of therapy: patients with mild to moderate disease symptoms

SMILES | Relief of symptoms [1] | Effectiveness in patients with severe symptoms [1] | Success of therapy [1] | other results
C#C[C@]1(O)CC[C@H]2[C@@H]3CCC4=Cc5oncc5C[C@]4(C)[C@H]3CC[C@@]21C [Danazol] |  |  |  | Therapeutic effect (irritable bowel syndrome; 200 mg four times daily, P.O.): only minimal therapeutic effect
COc1cc(N)c(Cl)cc1C(=O)NC1CCN(CCCOc2ccc(F)cc2)CC1OC (stereo not drawn) [cisapride] | limited relief of mild to moderate symptoms | not been effective |  | 
CCN(CC)CCNC(=O)c1cc(Cl)c(N)cc1OC [metoclopramide] |  |  | limited success | 
CC(C)C[C@H](NC(=O)[C@@H](Cc1ccc2ccccc2c1)NC(=O)[C@H](Cc1ccc(O)cc1)NC(=O)[C@H](CO)NC(=O)[C@H](Cc1c[nH]c2ccccc12)NC(=O)[C@H](Cc1c[nH]cn1)NC(=O)[C@@H]1CCC(=O)N1)C(=O)N[C@@H](CCCNC(=N)N)C(=O)N1CCC[C@H]1C(=O)NCC(N)=O [Nafarelin] |  |  |  | Blood levels of FSH and LH (irritable bowel syndrome; 2.0 mg/day s.c.): effectively reduced their blood levels of FSH and LH; Symptoms of irritable bowel disease (irritable bowel syndrome; 2.0 mg/day s.c.): effectively reduced the symptoms of their irritable bowel disease
O=c1[nH]c2ccccc2n1CCCN1CCC(n2c(=O)[nH]c3cc(Cl)ccc32)CC1 [domperidone] | limited relief of mild to moderate symptoms | not been effective |  | 
CC(C[N+](C)(C)C)OC(N)=O (stereo not drawn) [bethanechol] |  |  | limited success | 
